Experiment in all cases: agar diffusion test (Test System II, multi-resistant germs)
Holding throughout (conditions): quantity 0.09 μmol
In general terms: Agar diffusion results depend on both activity and mobility in agar.

The test system of experiment [1] is Staphylococcus aureus col. The class given is cell-based. On the procedure:
The test substances are deposited in stepped quantities (10 μg, 50 μg, 100 μg) onto active ingredient carriers (sensi-discs). For this purpose, the test substances are dissolved in methanol or A. dest. according to their solubility. Each inoculated plate is fitted with 3 test sheets.
Test System II (Effect Against Multi-Resistant Germs)
For this purpose, bacteria is cultivated on Müller-Hinton-Agar II plates.
With 1-1.5 ml physiological saline solution, a bacteria suspension of McFarland 0.5 (corresponds to a bacteria density of 150×10^6 germs) is produced. Then, with a sterile glass rod, a small drop of bacteria suspension is placed on the Müller-Hinton-Agar plate and coated in three layers (vertical, horizontal, and transverse). Thereafter, the sensi-discs with the novel semi-synthetic test substances are placed on top. The fitted plates are incubated for 18-20 hours at 37° C. After incubation, the diameters of the zones of inhibition are read as a measure for the antimicrobial activity of the novel semi-synthetic test substances.

For experiment [2], the system named is S. aureus ATCC 6538. The class given is cell-based, Staphylococcus aureus. Put shortly: (§1)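 Stepped amounts of each substance (10, 50, 100 μg) were applied to carrier discs from methanol or water according to solubility. These were laid on Müller-Hinton agar II inoculated at McFarland 0.5, and zones of inhibition were read following overnight incubation (18-20 h) at 37 °C.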

Experiment [3] concerns S. aureus 38418. The format is cell-based, Staphylococcus aureus. A digest of the protocol:
as §1

The test system of experiment [4] is S. aureus 36881. The class given is cell-based, Staphylococcus aureus. On the set-up: key: r = resistant (no detectable zone of inhibition). Put shortly:
as §1

The subject of experiment [5] is S. aureus 520. The format is cell-based, Staphylococcus aureus. On the set-up: key: r = resistant (no detectable zone of inhibition). Put shortly: as §1
The subject of experiment [6] is S. aureus 33490. The format is cell-based, Staphylococcus aureus. On the set-up: key: r = resistant (no detectable zone of inhibition). A digest of the protocol: as §1
In experiment [7] the test system is S. epidermidis 847. The class given is cell-based, Staphylococcus epidermidis. Put shortly: as §1
Experiment [8] concerns S. epidermidis 125. The format is cell-based, Staphylococcus epidermidis. Put shortly: as §1
The subject of experiment [9] is Staphylococcus haemolyticus 535. The format is cell-based. On the set-up: key: r = resistant (no detectable zone of inhibition). A digest of the protocol:
as §1

For experiment [10], the system named is Enterococcus faecalis 769. The class given is cell-based. On the set-up: key: r = resistant (no detectable zone of inhibition). Put shortly:
as §1

Experiment [11] has as its system Staphylococcus aureus 315. The class given is cell-based. On the set-up: key: r = resistant (no detectable zone of inhibition). Put shortly:
as §1

With `CC1(C)SC2C(NC(=O)C(NC3=C(C(=O)NCCO)C(=O)C=CC3=O)c3ccc(O)cc3)C(=O)N2C1C(=O)O` (centres unmarked) [6-{2-[2-(2-hydroxyethylcarbamoyl)-3,6-dioxocyclohexa-1,4-dienylamino]-2-(4-hydroxyphenyl)-acetylamino-penicillanic acid], the “Diameter of zone of inhibition” value in experiment [1] is 32 mm; in experiment [2], 44 mm; in experiment [3] it was 34 mm; in experiment [4], “r^2”; in [5], “r”; in [6] it was 18 mm. For the same compound, the “Diameter of zone of inhibition” value in experiment [7] is 24 mm; in [8], 28 mm; in experiment [9], “r”; in experiment [10] it was 28 mm; in experiment [11], “r”.
